Results published in patent US20230116703A1, “NOVEL ERGOLINES AND METHODS OF TREATING MOOD DISORDERS” (priority 2021, published 2023).

Legend:
5-HT2B receptor = target: T1, 5-HT2B receptor (Homo sapiens, UniProt P41595); assay: cell-based; settings: Ca^2+ flux, agonist; for EC50: read-out: 5-HT2B EC50
T1 construct: host or cells: HEK293
Procedure: (§1) Functional Assays at 5-HT2A, 5-HT2B, and 5-HT1A. Agonist activity at 5-HT2A, 5-HT2B, and 5-HT1A receptors was determined using a FLIPR Ca^2+ flux assay at WuXi AppTec (Hong Kong) Limited according to their standard protocols. Briefly, stably transfected cells expressing the receptor of interest (HEK293 for 5-HT2A and 5-HT2B; CHO cells for 5-HT1A) were grown and plated in a 384 well plate and incubated at 37° C. and 5% CO2 overnight. A solution of 250 mM probenecid in 1 mL FLIPR assay buffer was prepared fresh. This was combined with a fluorescent dye (Fluo-4 Direct™) to make a final assay concentration of 2.5 mM. […] The fluorescent dye was then added to the assay plate along with assay buffer to a final volume of 40 μL. The cell plate was incubated for 50 min at 37° C. and 5% CO2 and placed into the FLIPR Tetra along with the compound plate. 10 μL of references and compounds were then transferred from the compound plate into the cell plate and the fluorescent signal was read.

5-HT1A receptor = target: T2, 5-HT1A receptor (Homo sapiens, UniProt P08908); assay: cell-based; settings: Ca^2+ flux, agonist; for EC50: read-out: 5-HT1A EC50
T2 construct: host or cells: CHO cells
T2 sequence (P08908 1-422): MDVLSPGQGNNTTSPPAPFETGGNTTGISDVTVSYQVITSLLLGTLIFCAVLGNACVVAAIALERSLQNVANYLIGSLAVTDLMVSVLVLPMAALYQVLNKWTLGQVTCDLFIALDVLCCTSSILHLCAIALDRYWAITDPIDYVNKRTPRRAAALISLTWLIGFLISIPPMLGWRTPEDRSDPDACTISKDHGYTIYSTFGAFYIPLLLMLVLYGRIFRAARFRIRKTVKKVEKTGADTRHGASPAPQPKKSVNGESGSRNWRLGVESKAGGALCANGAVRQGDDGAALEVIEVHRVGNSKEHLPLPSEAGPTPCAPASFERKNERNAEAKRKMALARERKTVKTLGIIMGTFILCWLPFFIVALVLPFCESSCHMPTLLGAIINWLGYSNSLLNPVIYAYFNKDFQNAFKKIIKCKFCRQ
Procedure: as §1

5-HT1B receptor = 5-HT1B receptor (Homo sapiens, UniProt P28222); assay: cAMP accumulation agonist assay at 5-HT1B; assay type: cell-based; settings: cAMP, agonist; for EC50: read-out: 5-HT1B EC50
Procedure: Disclosed compounds were tested for agonist activity at several serotonin receptor subtypes (5-HT2A, […], 5-HT2C, and 5-HT1A) using Ca^2+ flux functional assays and the 5-HT1B receptor using a cAMP accumulation assay, with the results summarized in Table 4. […] Potent agonist activity was also observed at the other serotonin receptors tested, although the selectivity profile among the receptors varied across compounds. […]. However, at the same time, the N-propyl compounds were more efficacious agonists at 5-HT2B than the corresponding N-methyl compounds. The selectivity of disclosed compounds for 5-HT2A over 5-HT2C and 5-HT1A was less predictable and varied widely across compounds, ranging from ˜1:6 to ˜20:1 (2C/2A) in the case of 5-HT2C and from ˜1:4 to >100:1 (1A/2A) in the case of 5-HT1A. […] An azetidinyl amide substituent tended to increase potency at 5-HT1A relative to 5-HT2A.
Functional Assay at 5-HT1B. Agonist activity at 5-HT1B was determined using a cAMP accumulation protocol at WuXi AppTec (Hong Kong) Limited according to their standard protocols. Briefly, stably transfected cells were plated in an OptiPlate-384 well plate, incubated at RT for 60 mins, and cAMP standard solution (800 nM, 10 μL) was added to the blank well. Then, 10 μL detection reagent was added to each well, the plate incubated for 60 mins at RT, and the plate read using EnVision.

5-HT2A receptor [1] = target: T3, 5-HT2A receptor (Homo sapiens, UniProt P28223); assay: cell-based; assay type: cell-based; settings: Ca^2+ flux, agonist; for EC50: read-out: 5-HT2A EC50
T3 construct: host or cells: HEK293
Procedure: as §1

5-HT2A receptor [2] = target: T3, 5-HT2A receptor; assay: biochemical; assay type: binding; settings: for Ki: 1 nM [^3H]ketanserin, HEK293 stable cell line, read-out: 5-HT2A Receptor Ki (nM) ([^3H]ketanserin); for 5-HT2A receptor binding affinity / potency (in words): radioligand binding
Procedure: Affinity of the test compounds for the 5-HT2A receptor was determined in radioligand binding experiments with [^3H]ketanserin by WuXi AppTec (Hong Kong) Limited, using methods adapted from the literature and under conditions described in Table 1.

[3] = Metabolic stability in human liver microsomes (HLM); assay type: in vitro ADME; settings: both sexes, human, pooled human liver microsomes, pH 7.4, 0.50 mg protein per mL
Excerpt: HLM Stability. Pooled HLM from adult male and female donors (Corning 452117) were used.

5-HT1B receptor, sequence (P28222 whole entry): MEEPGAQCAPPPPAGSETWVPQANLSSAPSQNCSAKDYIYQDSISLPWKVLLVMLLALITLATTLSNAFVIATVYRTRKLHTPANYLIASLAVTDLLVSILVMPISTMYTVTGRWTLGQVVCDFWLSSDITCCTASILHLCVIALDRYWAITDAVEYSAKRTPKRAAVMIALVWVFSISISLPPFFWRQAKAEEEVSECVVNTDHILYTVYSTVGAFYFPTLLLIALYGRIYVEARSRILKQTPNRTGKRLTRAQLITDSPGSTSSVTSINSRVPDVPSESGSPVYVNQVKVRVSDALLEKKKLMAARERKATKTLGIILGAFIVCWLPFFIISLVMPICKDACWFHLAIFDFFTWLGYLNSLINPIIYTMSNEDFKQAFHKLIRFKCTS
T3 sequence (P28223 whole entry): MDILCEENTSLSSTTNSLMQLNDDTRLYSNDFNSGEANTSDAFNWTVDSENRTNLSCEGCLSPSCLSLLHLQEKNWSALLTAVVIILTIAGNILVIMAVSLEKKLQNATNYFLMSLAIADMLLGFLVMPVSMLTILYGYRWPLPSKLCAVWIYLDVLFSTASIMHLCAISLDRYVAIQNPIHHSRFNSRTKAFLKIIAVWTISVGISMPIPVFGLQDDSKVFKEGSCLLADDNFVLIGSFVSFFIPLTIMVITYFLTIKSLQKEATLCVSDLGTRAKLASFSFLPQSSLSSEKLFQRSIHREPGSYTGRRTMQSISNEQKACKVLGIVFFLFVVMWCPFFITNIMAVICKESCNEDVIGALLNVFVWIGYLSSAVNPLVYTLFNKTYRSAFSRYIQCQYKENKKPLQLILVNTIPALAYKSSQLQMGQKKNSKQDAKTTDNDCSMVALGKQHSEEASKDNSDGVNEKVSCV
T1 sequence (P41595 whole entry): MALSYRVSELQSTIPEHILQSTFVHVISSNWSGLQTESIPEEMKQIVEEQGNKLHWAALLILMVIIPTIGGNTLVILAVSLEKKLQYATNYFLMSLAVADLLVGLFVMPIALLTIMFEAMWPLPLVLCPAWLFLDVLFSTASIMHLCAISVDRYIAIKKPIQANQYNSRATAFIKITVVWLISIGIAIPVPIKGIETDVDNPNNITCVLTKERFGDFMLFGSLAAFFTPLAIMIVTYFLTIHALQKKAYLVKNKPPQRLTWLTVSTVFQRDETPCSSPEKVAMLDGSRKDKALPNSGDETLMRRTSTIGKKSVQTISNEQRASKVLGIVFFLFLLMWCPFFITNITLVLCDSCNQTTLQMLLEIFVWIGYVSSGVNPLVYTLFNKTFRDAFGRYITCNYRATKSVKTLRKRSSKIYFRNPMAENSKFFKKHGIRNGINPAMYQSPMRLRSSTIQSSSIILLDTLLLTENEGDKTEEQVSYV

In the case of `CCCN1C[C@H](C(=O)N(CC)CC)C=C2c3cccc4c3C(CN4)C[C@H]21` (mixture of isomers) [Compound 36, (6aR,9R)—N,N-diethyl-7-propyl-4,5,5a,6,6a,7,8,9-octahydroindolo[4,3-fg]quinoline-9-carboxamide], the “5-HT2B % Act @ Max Dose” value (5-HT2B receptor) is reported as 110.53%, the EC50 (5-HT2B receptor) is reported as 627 nM and the “5-HT1A % Act @ Max Dose” value (5-HT1A receptor) is reported as 88.68%. For the same compound, the EC50 (5-HT1A receptor) was 4.84 nM, the “5-HT1B % Act @ Max Dose” value (5-HT1B receptor) was 97.51% and the EC50 (5-HT1B receptor) was 22.7 nM. The “5-HT2A % Act @ Max Dose” value (5-HT2A receptor [1]) was 77.54%, the EC50 (5-HT2A receptor [1]) was 50.4 nM and the Ki (5-HT2A receptor [2]) was 10.7 nM. For the same compound, the “5-HT2A receptor binding affinity / potency (in words)” value (5-HT2A receptor [2]) was “reduced in potency”, the half-life at 1 μM [3] was 32.8 min and the microsomal CLint at 1 μM [3] was 42.2 µL/min/mg.

In the case of `CCN(CC)C(=O)[C@@H]1C=C2c3cccc4c3C(CN4)C[C@H]2N(C)C1` (mixture of isomers) [Compound 37, (6aR,9R)—N,N-diethyl-7-methyl-4,5,5a,6,6a,7,8,9-octahydroindolo[4,3-fg]quinoline-9-carboxamide], the “5-HT2B % Act @ Max Dose” value (5-HT2B receptor) is reported as 24.06%, the EC50 (5-HT2B receptor) is reported as 465 nM and the “5-HT1A % Act @ Max Dose” value (5-HT1A receptor) is reported as 108.98%. The EC50 (5-HT1A receptor) was 17.2 nM, the “5-HT1B % Act @ Max Dose” value (5-HT1B receptor) was 90.74% and the EC50 (5-HT1B receptor) was 19.4 nM. The “5-HT2A % Act @ Max Dose” value (5-HT2A receptor [1]) was 76.37%, the EC50 (5-HT2A receptor [1]) was 76.6 nM and the Ki (5-HT2A receptor [2]) was 11.4 nM. The “5-HT2A receptor binding affinity / potency (in words)” value (5-HT2A receptor [2]) was “reduced in potency”, the half-life at 1 μM [3] was > 145 min and the microsomal CLint at 1 μM [3] was < 9.6 µL/min/mg.

In the case of `CCCN1C[C@H](C(=O)N(CC)CC)C=C2c3cccc4[nH]c(Br)c(c34)C[C@H]21` [Compound 9, (6aR,9R)-5-bromo-N,N-diethyl-7-propyl-4,6,6a,7,8,9-hexahydroindolo[4,3-fg]quinoline-9-carboxamide], the “5-HT2B % Act @ Max Dose” value (5-HT2B receptor) is reported as 89.6%, the EC50 (5-HT2B receptor) is reported as 400 nM and the “5-HT1A % Act @ Max Dose” value (5-HT1A receptor) is reported as 101.39%. The EC50 (5-HT1A receptor) was 96.5 nM, the “5-HT1B % Act @ Max Dose” value (5-HT1B receptor) was 81.46% and the EC50 (5-HT1B receptor) was 264 nM. The “5-HT2A % Act @ Max Dose” value (5-HT2A receptor [1]) was 75.81%, the EC50 (5-HT2A receptor [1]) was 228 nM and the Ki (5-HT2A receptor [2]) was 1.11 nM. For the same compound, the half-life at 1 μM [3] was 9.9 min and the microsomal CLint at 1 μM [3] was 140 µL/min/mg.

In the case of `C[C@H]1C[C@H](C)N1C(=O)[C@@H]1C=C2c3cccc4[nH]cc(c34)C[C@H]2N(CCCF)C1` [Compound 26, ((2S,4S)-2,4-dimethylazetidin-1-yl)((6aR,9R)-7-(3-fluoropropyl)-4,6,6a,7,8,9-hexahydroindolo[4,3-fg]quinolin-9-yl)methanone], the “5-HT2B % Act @ Max Dose” value (5-HT2B receptor) is reported as 100.66%, the EC50 (5-HT2B receptor) is reported as 431 nM and the “5-HT1A % Act @ Max Dose” value (5-HT1A receptor) is reported as 97.94%. The EC50 (5-HT1A receptor) was 3.63 nM, the “5-HT1B % Act @ Max Dose” value (5-HT1B receptor) was 77.16% and the EC50 (5-HT1B receptor) was 734 nM. The “5-HT2A % Act @ Max Dose” value (5-HT2A receptor [1]) was 83.23%, the EC50 (5-HT2A receptor [1]) was 15.6 nM and the Ki (5-HT2A receptor [2]) was 11.3 nM. The half-life at 1 μM [3] was 20.5 min and the microsomal CLint at 1 μM [3] was 67.7 µL/min/mg.

For `C=CCN1C[C@H](C(=O)N2[C@@H](C)C[C@@H]2C)C=C2c3cccc4[nH]cc(c34)C[C@H]21` [Compound 27, ((6aR,9R)-7-allyl-4,6,6a,7,8,9-hexahydroindolo[4,3-fg]quinolin-9-yl)((2S,4S)-2,4-dimethylazetidin-1-yl)methanone], the “5-HT2B % Act @ Max Dose” value (5-HT2B receptor) was 96.0%, the EC50 (5-HT2B receptor) was 351 nM and the “5-HT1A % Act @ Max Dose” value (5-HT1A receptor) was 90.8%. The EC50 (5-HT1A receptor) was 2.97 nM, the “5-HT1B % Act @ Max Dose” value (5-HT1B receptor) was 96.92% and the EC50 (5-HT1B receptor) was 88.7 nM. The “5-HT2A % Act @ Max Dose” value (5-HT2A receptor [1]) was 81.1%, the EC50 (5-HT2A receptor [1]) was 12 nM and the Ki (5-HT2A receptor [2]) was 8.96 nM. The half-life at 1 μM [3] was 16.1 min and the microsomal CLint at 1 μM [3] was 86.1 µL/min/mg.
